Laboratory results reported in article PMC11726654, “Discovery of MDI-114215: A Potent and Selective LIMK Inhibitor To Treat Fragile X Syndrome” (Journal of Medicinal Chemistry, 2024).
Converted amounts (≈) assume the structure as drawn.

What was measured:
[1] = Unbound fraction in brain and plasma; assay type: in vitro ADME; details: for fubrain: unbound fraction in brain; for fuplasma: unbound fraction in plasma
Microsomal stability [2] = details: human, microsomes, pH 7.4
Microsomal stability [3] = details: for microsomal CLint at 2 μM / microsomal CLint at 0.5 h, 2 µM: rat, microsomes, pH 7.4; for Microsomal CLint Rat: rat microsomes, 2 μM compound
CNS penetration study = details: male, Sprague-Dawley, rat, brain/plasma, iv, 1 mg/kg
In vivo PK, i.v. dosing = details: male, Sprague-Dawley, rat, plasma; for CLint scaled: intravenous; for AUC(0-inf) at 1 h / Vd at 1 h / half-life at 1 h: iv
Method: A satellite group of three animals were also administered i.v. test compound (dosed at 1 mg/kg in 10% DMSO/20% Cremophor/70% saline) and after 1 h, the animals culled and brain samples immediately prepared by homogenization in H2O and protein precipitation in MeCN. Bioanalysis on plasma and brain samples were performed using a UHPLC-tandem mass spectrometry using electrospray ionization.

Thermodynamic solubility = details: PBS, pH 7
[4] = In vivo PK, p.o./i.p. dosing; details: male, Sprague-Dawley, rat, plasma
LIMK1 = LIMK1 (Homo sapiens, UniProt P53667); assay: RapidFire mass spectrometry kinase assay (cofilin phosphorylation); assay type: biochemical; details: non-phosphorylated LIMK1; mean ± SEM; read-out: Enzymatic (RapidFire) pIC50 LIMK1 (converted)
LIMK2 = LIMK2 (Homo sapiens, UniProt P53671); assay: as above; assay type: biochemical; details: non-phosphorylated LIMK2; mean ± SEM; read-out: Enzymatic (RapidFire) pIC50 LIMK2 (converted)
[5] = Caco-2 permeability and efflux; details: human, Caco-2
[6] = test system: p-cofilin Ser3 levels in SH-SY5Y cells; assay: AlphaLISA SureFire p-cofilin assay; assay type: cell-based; details: Homo sapiens, 2 h, read-out: alphaLISA pIC50 p-cofilin (converted)
Method: The AlphaLISA assay for detection of p-cofilin Ser3 levels was followed as previously described.[14] […] Cells were placed in the incubator for 2 h, after which the media was removed and the cells were lysed using 50 μL AlphaLISA 1× lysis buffer (PerkinElmer, USA) containing protease inhibitor cocktail (Sigma/Merck, Dorset, UK) and Pierce phosphatase inhibitor cocktail (Thermo Fisher Scientific, UK). The cell lysate was then transferred to a clean, flat-bottom, white 384-well plate, to which 5 μL/well of acceptor bead solution consisting of Reaction buffer 1, Reaction buffer 2, Activation Buffer and Acceptor Beads from pCofilin SureFire Ultra assay kit (PerkinElmer, USA, cat# ALSU-PCOF-A500) was added under dim light. After incubation at RT for 1 h, 5 μL/well of donor solution consisting of Dilution Buffer and Donor beads was added. The plate was read on a Pherastar reader (BMD Labtech Ltd., Aylesbury, UK) using an AlphaLISA cartridge and AlphaLISA plate settings.

Caco-2 = Caco-2 permeability and efflux; details: efflux ratio
[7] = test system: p-cofilin levels in WT and Fmr1 KO mouse brain slices; assay: Western blot of p-cofilin in treated hippocampal brain slices; details: 3 μM, 30 min, WT and Fmr1 KO (P7–9) brain slices
Method: Hippocampal slices were obtained from neonatal (postnatal days 7–9) wild type (WT) and Fmr1 KO mice originally supplied by Jackson Laboratories. […] Mice for experimentation were killed by cervical dislocation. […] The temporal aspects of the brain were trimmed, bisected, then glued to a metal plate, such that the midline was uppermost and horizontal. […] Each individual sample was suspended in 300 μL of buffer and lysed by pipetting on ice. Samples were centrifuged to pellet at 17,000g for 30 min at 4 °C. Protein was quantified using Biorad DC protein assay (Biorad, 5000112) and read on a PheraStar plate reader (BMG Labtech) and standardized to 2 mg/mL each sample.
Sample loading buffer was added to each sample at 1:4 concentrations and boiled for 5 min prior to use. […] Membranes were then blocked in 5% BSA TBST for 1 h at rt and then placed into LIMK1, p-cofilin, cofilin and actin primary antibody solutions at 4 °C overnight. The following day, membranes were washed 3× in TBST solution before being placed in appropriate secondary antibody solutions for 1 h at room temperature. Following a final 3 washes in TBST, the membranes were developed using ClarityMax ECL substrate (Biorad, UK) at a 1:1 ratio. The ECL solution was allowed to develop on the membrane for 5 min prior to visualizing using the CHEMIDOC imaging system (Biorad, UK). […]

LIMK1, sequence (P53667 whole entry): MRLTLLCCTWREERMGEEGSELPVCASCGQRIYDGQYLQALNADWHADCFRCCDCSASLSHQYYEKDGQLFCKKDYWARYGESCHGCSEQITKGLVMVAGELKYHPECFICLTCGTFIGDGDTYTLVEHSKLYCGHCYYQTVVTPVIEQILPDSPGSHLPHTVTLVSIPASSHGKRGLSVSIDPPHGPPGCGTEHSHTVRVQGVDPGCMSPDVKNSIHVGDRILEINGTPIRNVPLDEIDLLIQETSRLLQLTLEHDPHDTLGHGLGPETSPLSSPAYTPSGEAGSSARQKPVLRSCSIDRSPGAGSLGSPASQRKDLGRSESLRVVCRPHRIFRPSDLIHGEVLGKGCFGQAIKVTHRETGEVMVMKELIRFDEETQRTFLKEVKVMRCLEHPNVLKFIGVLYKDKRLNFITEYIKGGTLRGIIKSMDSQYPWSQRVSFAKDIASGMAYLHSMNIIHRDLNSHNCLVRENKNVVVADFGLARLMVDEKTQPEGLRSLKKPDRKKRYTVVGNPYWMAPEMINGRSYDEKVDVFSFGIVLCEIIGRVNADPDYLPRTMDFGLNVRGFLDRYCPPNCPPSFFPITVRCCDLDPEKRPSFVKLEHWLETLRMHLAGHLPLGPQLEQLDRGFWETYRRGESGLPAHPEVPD
LIMK2, sequence (P53671 whole entry): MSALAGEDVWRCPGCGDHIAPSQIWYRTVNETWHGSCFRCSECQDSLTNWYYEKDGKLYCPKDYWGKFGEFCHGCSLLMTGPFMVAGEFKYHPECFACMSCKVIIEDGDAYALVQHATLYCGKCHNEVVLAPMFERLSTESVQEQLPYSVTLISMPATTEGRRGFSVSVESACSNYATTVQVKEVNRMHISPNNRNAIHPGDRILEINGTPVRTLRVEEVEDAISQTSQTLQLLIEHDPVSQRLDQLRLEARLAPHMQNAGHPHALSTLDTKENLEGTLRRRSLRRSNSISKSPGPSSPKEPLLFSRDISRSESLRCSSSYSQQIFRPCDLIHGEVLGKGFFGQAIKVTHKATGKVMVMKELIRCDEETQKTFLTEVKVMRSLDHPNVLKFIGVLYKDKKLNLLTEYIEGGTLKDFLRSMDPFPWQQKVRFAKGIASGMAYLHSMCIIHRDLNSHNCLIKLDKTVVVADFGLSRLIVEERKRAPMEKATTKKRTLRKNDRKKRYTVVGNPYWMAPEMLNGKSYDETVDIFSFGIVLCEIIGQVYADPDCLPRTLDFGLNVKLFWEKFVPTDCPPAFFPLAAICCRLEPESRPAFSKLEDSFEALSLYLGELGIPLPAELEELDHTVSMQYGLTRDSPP

With CCCCN(Cc1ccc2[nH]ccc2c1)C(=O)c1ccc(S(=O)(=O)Nc2ccccc2)cc1 [Compound 51, N-Butyl-N-(1H-indol-5-ylmethyl)-4-(phenylsulfamoyl)benzamide] the fubrain [1] was < 0.1%, the fuplasma [1] was 1.3% and the microsomal CLint at 2 μM (Microsomal stability [2]) was 121 µL/min/mg. The microsomal CLint at 2 μM (Microsomal stability [3]) was 357 µL/min/mg, the Kp at 1 h (CNS penetration study) was 0.4 and the Kp uu at 1 h (CNS penetration study) was < 0.03. It also gave a CLint scaled (In vivo PK, i.v. dosing) of 67.8 mL/min/kg, an AUC(0-inf) at 1 h (In vivo PK, i.v. dosing; 1 mg/kg) of 247 ng·h/mL and a Vd at 1 h (In vivo PK, i.v. dosing; 1 mg/kg) of 2.3 L/kg. For the same molecule, the half-life at 1 h (In vivo PK, i.v. dosing; 1 mg/kg) was 30 min, the solubility at 24 h (Thermodynamic solubility) was 3 µM (≈ 1.38 µg/mL) and the Cmax at 1 h ([4]; po, 3 mg/kg) was 4.6 ng/mL. The Tmax at 1 h ([4]; po, 3 mg/kg) was 60 min and the bioavailability at 1 h ([4]; po, 3 mg/kg) was 2%.
Work on N#CCCN(Cc1ccncc1)C(=O)c1ccc(S(=O)(=O)Nc2ccccc2)cc1 [Compound 55, N-(2-Cyanoethyl)-4-(phenylsulfamoyl)-N-(4-pyridylmethyl)benzamide] yielded a microsomal CLint at 2 μM (Microsomal stability [2]) of 32 µL/min/mg, a microsomal CLint at 2 μM (Microsomal stability [3]) of 81 µL/min/mg and a CLint scaled (In vivo PK, i.v. dosing) of 16.5 mL/min/kg. The AUC(0-inf) at 1 h (In vivo PK, i.v. dosing; 0.2 mg/kg) was 217 ng·h/mL, the Vd at 1 h (In vivo PK, i.v. dosing; 0.2 mg/kg) was 0.4 L/kg and the half-life at 1 h (In vivo PK, i.v. dosing; 0.2 mg/kg) was 18 min.
With C[C@@H](c1ccccc1)N(CC1CC1)C(=O)c1ccc(S(=O)(=O)Nc2ccccc2)cc1 [Compound 64, (S)-N-(Cyclopropylmethyl)-N-(1-phenylethyl)-4-(N-phenylsulfamoyl)benzamide] the IC50 (LIMK1) was 240 nM, the IC50 (LIMK2) was 100 nM and the microsomal CLint at 2 μM (Microsomal stability [2]) was 774 µL/min/mg. For the same molecule, the “Microsomal CLint Rat” value (Microsomal stability [3]) was “Rapid”.
Work on C[C@H](c1ccccc1)N(CC1CC1)C(=O)c1ccc(S(=O)(=O)Nc2ccccc2)cc1 [Compound 65, (R)-N-(Cyclopropylmethyl)-N-(1-phenylethyl)-4-(N-phenylsulfamoyl)benzamide] yielded an IC50 (LIMK1) of 4900 nM, an IC50 (LIMK2) of 1070 nM and a microsomal CLint at 2 μM (Microsomal stability [2]) of 419 µL/min/mg. For the same molecule, the “Microsomal CLint Rat” value (Microsomal stability [3]) was “Rapid”.
With O=C(c1ccc(S(=O)(=O)Nc2ccccc2)cc1)N(Cc1ccc(F)cn1)CC1CC1 [Compound 71, N-(Cyclopropylmethyl)-N-((5-fluoropyridin-2-yl)methyl)-4-(N-phenylsulfamoyl)benzamide] the microsomal CLint at 0.5 h, 2 µM (Microsomal stability [2]) was 282 µL/min/mg, the “Microsomal CLint Rat” value (Microsomal stability [3]) was “Rapid” and the Papp [5] was 21.1 ×10⁻⁶ cm/s.
In the case of O=C(c1ccc(S(=O)(=O)Nc2ccccc2)cc1)N(Cc1ccc(NCCO)cn1)CC1CC1 [Compound 74, N-(Cyclopropylmethyl)-N-[[5-(2-hydroxyethylamino)-2-pyridyl]methyl]-4-(phenylsulfamoyl)benzamide], the IC50 [6] is reported as 661 nM, the fubrain [1] is reported as 2.8% and the fuplasma [1] is reported as 8.0%. The microsomal CLint at 0.5 h, 2 µM (Microsomal stability [2]) was 42 µL/min/mg, the microsomal CLint at 0.5 h, 2 µM (Microsomal stability [3]) was 114 µL/min/mg and the CLint scaled (In vivo PK, i.v. dosing) was 51.9 mL/min/kg. For the same molecule, the AUC(0-inf) at 1 h (In vivo PK, i.v. dosing; 1 mg/kg) was 322 ng·h/mL, the Vd at 1 h (In vivo PK, i.v. dosing; 1 mg/kg) was 1.8 L/kg and the half-life at 1 h (In vivo PK, i.v. dosing; 1 mg/kg) was 42 min. The Cmax at 1 h ([4]; po, 3 mg/kg) was 50.8 ng/mL, the Tmax at 1 h ([4]; po, 3 mg/kg) was 24 min and the bioavailability at 1 h ([4]; po, 3 mg/kg) was 15%.
Molecule COCCNc1ccc(CN(CC2CC2)C(=O)c2ccc(S(=O)(=O)Nc3ccccc3)cc2)nc1 [Compound 75, N-(Cyclopropylmethyl)-N-[[5-(2-methoxyethylamino)-2-pyridyl]methyl]-4-(phenylsulfamoyl)benzamide] has an IC50 [6] of 77.6 nM, a fubrain [1] of 2.2% and a fuplasma [1] of 4.7%. It also gave a microsomal CLint at 0.5 h, 2 µM (Microsomal stability [2]) of 175 µL/min/mg, a microsomal CLint at 0.5 h, 2 µM (Microsomal stability [3]) of 327 µL/min/mg and a CLint scaled (In vivo PK, i.v. dosing) of 374 mL/min/kg. It also gave an AUC(0-inf) at 1 h (In vivo PK, i.v. dosing; 0.5 mg/kg) of 22.6 ng·h/mL, a Vd at 1 h (In vivo PK, i.v. dosing; 0.5 mg/kg) of 10.9 L/kg and a half-life at 1 h (In vivo PK, i.v. dosing; 0.5 mg/kg) of 24 min. For the same molecule, the solubility at 24 h (Thermodynamic solubility) was 28 µM (≈ 13.8 µg/mL), the Cmax at 1 h ([4]; ip, 10 mg/kg) was 134 ng/mL and the Tmax at 1 h ([4]; ip, 10 mg/kg) was 18 min. The bioavailability ([4]; ip, 10 mg/kg) was 55%, the Cmax at 1 h ([4]; po, 3 mg/kg) was 16.8 ng/mL and the Tmax at 1 h ([4]; po, 3 mg/kg) was 24 min. It also gave a bioavailability at 1 h ([4]; po, 3 mg/kg) of 13% and a Papp [5] of 8.3 ×10⁻⁶ cm/s.
For O=C(c1ccc(S(=O)(=O)Nc2ccccc2)cc1)N(Cc1ccc(NC2COC2)cn1)CC1CC1 [Compound 76, N-(Cyclopropylmethyl)-N-[[5-(oxetan-3-ylamino)-2-pyridyl]methyl]-4-(phenylsulfamoyl)benzamide], the microsomal CLint at 0.5 h, 2 µM (Microsomal stability [2]) was 71 µL/min/mg, the microsomal CLint at 0.5 h, 2 µM (Microsomal stability [3]) was 22 µL/min/mg and the Papp [5] was 1.7 ×10⁻⁶ cm/s.
For CN(CCO)c1ccc(CN(CC2CC2)C(=O)c2ccc(S(=O)(=O)Nc3ccccc3)cc2)nc1 [Compound 77, N-(Cyclopropylmethyl)-N-[[5-[2-hydroxyethyl(methyl)amino]-2-pyridyl]methyl]-4-(phenylsulfamoyl)benzamide], the microsomal CLint at 2 μM (Microsomal stability [2]) was 109 µL/min/mg, the “Microsomal CLint Rat” value (Microsomal stability [3]) was “Rapid” and the Papp [5] was 0.5 ×10⁻⁶ cm/s.
With O=C(c1ccc(S(=O)(=O)Nc2ccccc2)cc1)N(Cc1ccc(CCc2nnn[nH]2)cn1)CC1CC1 [Compound 79, N-(Cyclopropylmethyl)-4-(phenylsulfamoyl)-N-[[5-[2-(1H-tetrazol-5-yl)ethyl]-2-pyridyl]methyl]benzamide] the microsomal CLint at 2 μM (Microsomal stability [2]) was 22 µL/min/mg, the microsomal CLint at 2 μM (Microsomal stability [3]) was 12 µL/min/mg and the Papp [5] was 0.1 ×10⁻⁶ cm/s. The “Caco-2 ER” value (Caco-2) was 103.
Cc1nc(CN(CC2CC2)C(=O)c2ccc(S(=O)(=O)Nc3ccccc3)cc2)ccc1NCCO [Compound 82, N-(Cyclopropylmethyl)-N-[[5-(2-hydroxyethylamino)-6-methyl-2-pyridyl]methyl]-4-(phenylsulfamoyl)benzamide] showed a microsomal CLint at 2 μM (Microsomal stability [2]) of 97 µL/min/mg, a microsomal CLint at 2 μM (Microsomal stability [3]) of 221 µL/min/mg and a Papp [5] of 0.6 ×10⁻⁶ cm/s. For the same molecule, the “Caco-2 ER” value (Caco-2) was 81.
Cc1cc(CN(CC2CC2)C(=O)c2ccc(S(=O)(=O)Nc3ccccc3)cc2)ncc1NCCO [Compound 83, N-(Cyclopropylmethyl)-N-[[5-(2-hydroxyethylamino)-4-methyl-2-pyridyl]methyl]-4-(phenylsulfamoyl)benzamide] showed a microsomal CLint at 0.5 h, 2 µM (Microsomal stability [2]) of 130 µL/min/mg, a microsomal CLint at 0.5 h, 2 µM (Microsomal stability [3]) of 171 µL/min/mg and a Papp [5] of 0.5 ×10⁻⁶ cm/s.
Work on CN(c1ccccc1)S(=O)(=O)c1ccc(C(=O)N(Cc2ccc(NCCO)cn2)CC2CC2)cc1 [Compound 84, N-(Cyclopropylmethyl)-N-[[5-(2-hydroxyethylamino)-2-pyridyl]methyl]-4-[methyl(phenyl)sulfamoyl]benzamide] yielded a microsomal CLint at 2 μM (Microsomal stability [2]) of 344 µL/min/mg, a microsomal CLint at 2 μM (Microsomal stability [3]) of 409 µL/min/mg and a Papp [5] of 5.7 ×10⁻⁶ cm/s. The “Caco-2 ER” value (Caco-2) was 12.
Work on O=C(c1ccc(S(=O)(=O)Nc2ccccc2)cc1)N(Cc1ccc(OCCO)cc1)CC1CC1 [Compound 86, N-(Cyclopropylmethyl)-N-[[4-(2-hydroxyethoxy)phenyl]methyl]-4-(phenylsulfamoyl)benzamide] yielded an IC50 [6] of 56.2 nM, a fubrain [1] of 0.9% and a fuplasma [1] of 1.4%. For the same molecule, the microsomal CLint at 0.5 h, 2 µM (Microsomal stability [2]) was 119 µL/min/mg, the microsomal CLint at 0.5 h, 2 µM (Microsomal stability [3]) was 420 µL/min/mg and the solubility at 24 h (Thermodynamic solubility) was 6 µM (≈ 2.88 µg/mL). It also gave a Papp [5] of 15 ×10⁻⁶ cm/s.
In the case of CCn1c(=O)c(-c2ccc(Cl)cc2Cl)cc2cnc(Nc3ccc(N4CCNCC4)c(F)c3)nc21 [FRAX486], the “p-cofilin levels vs vehicle” value [7] is reported as “consistent reduction”.
